# According to the NIST ThermoML archive (doi:10.1021/je0504212):
# Numbers after ± are expanded uncertainties.
# How the values were obtained:
# [1] = 308.5 K; 101.33 kPa; Liquid
# [2] = excess molar enthalpy (molar enthalpy of mixing); xn = mol fraction of the nth substance listed; settings: 308.15 K, 101 kPa, Liquid, Flow calorimetry
smiles,measurement,setting,value
"CCOCCOCC [1,2-diethoxyethane]",mass density,[1],826.22 ± 0.58 kg/m3
CCOCCOCCOCCO [2-(2-(2-ethoxyethoxy)ethoxy)ethanol] + OCc1ccccc1,excess molar enthalpy,[2]; x1 = 0.0241,-0.0471 ± 0.00055 kcal/mol
same,excess molar enthalpy,[2]; x1 = 0.047,-0.08444 ± 0.000837 kcal/mol
same,excess molar enthalpy,[2]; x1 = 0.0689,-0.1138 ± 0.00108 kcal/mol
same,excess molar enthalpy,[2]; x1 = 0.0898,-0.1373 ± 0.00124 kcal/mol
same,excess molar enthalpy,[2]; x1 = 0.129,-0.1713 ± 0.00151 kcal/mol
same,excess molar enthalpy,[2]; x1 = 0.1648,-0.1944 ± 0.0017 kcal/mol
same,excess molar enthalpy,[2]; x1 = 0.2284,-0.2216 ± 0.00191 kcal/mol
same,excess molar enthalpy,[2]; x1 = 0.283,-0.236 ± 0.00201 kcal/mol
same,excess molar enthalpy,[2]; x1 = 0.3719,-0.2477 ± 0.0021 kcal/mol
same,excess molar enthalpy,[2]; x1 = 0.4704,-0.2462 ± 0.0021 kcal/mol
same,excess molar enthalpy,[2]; x1 = 0.5422,-0.2354 ± 0.00201 kcal/mol
same,excess molar enthalpy,[2]; x1 = 0.6398,-0.2077 ± 0.00179 kcal/mol
same,excess molar enthalpy,[2]; x1 = 0.7031,-0.1828 ± 0.0016 kcal/mol
same,excess molar enthalpy,[2]; x1 = 0.7804,-0.1459 ± 0.00131 kcal/mol
same,excess molar enthalpy,[2]; x1 = 0.8257,-0.1219 ± 0.00115 kcal/mol
same,excess molar enthalpy,[2]; x1 = 0.8766,-0.09221 ± 0.000908 kcal/mol
same,excess molar enthalpy,[2]; x1 = 0.9343,-0.0542 ± 0.000621 kcal/mol
CCOCCOCCOCCO [2-(2-(2-ethoxyethoxy)ethoxy)ethanol],mass density,[1],1008.8 ± 1 kg/m3
"COCCOC [1,2-dimethoxyethane]",mass density,[1],850.28 ± 0.56 kg/m3
"CCOCCOCCO [3,6-dioxa-1-octanol]",mass density,[1],974.67 ± 0.52 kg/m3
OCc1ccccc1 [benzenemethanol],mass density,[1],1033.64 ± 0.55 kg/m3
"CCOCCOCC [1,2-diethoxyethane] + OCc1ccccc1",excess molar enthalpy,[2]; x1 = 0.0296,-0.0118 ± 0.000287 kcal/mol
same,excess molar enthalpy,[2]; x1 = 0.0575,-0.0292 ± 0.000406 kcal/mol
same,excess molar enthalpy,[2]; x1 = 0.0838,-0.0483 ± 0.00055 kcal/mol
same,excess molar enthalpy,[2]; x1 = 0.1087,-0.0659 ± 0.000693 kcal/mol
same,excess molar enthalpy,[2]; x1 = 0.1546,-0.09515 ± 0.000932 kcal/mol
same,excess molar enthalpy,[2]; x1 = 0.196,-0.1143 ± 0.00108 kcal/mol
same,excess molar enthalpy,[2]; x1 = 0.2678,-0.1312 ± 0.0012 kcal/mol
same,excess molar enthalpy,[2]; x1 = 0.3278,-0.1323 ± 0.00122 kcal/mol
same,excess molar enthalpy,[2]; x1 = 0.4225,-0.1224 ± 0.00112 kcal/mol
same,excess molar enthalpy,[2]; x1 = 0.5232,-0.1073 ± 0.00103 kcal/mol
same,excess molar enthalpy,[2]; x1 = 0.594,-0.09457 ± 0.000908 kcal/mol
same,excess molar enthalpy,[2]; x1 = 0.687,-0.0683 ± 0.000717 kcal/mol
same,excess molar enthalpy,[2]; x1 = 0.7453,-0.0439 ± 0.000526 kcal/mol
same,excess molar enthalpy,[2]; x1 = 0.8144,-0.0092 ± 0.000263 kcal/mol
same,excess molar enthalpy,[2]; x1 = 0.8541,0.0102 ± 0.000263 kcal/mol
same,excess molar enthalpy,[2]; x1 = 0.8977,0.0262 ± 0.000382 kcal/mol
same,excess molar enthalpy,[2]; x1 = 0.9461,0.0297 ± 0.000406 kcal/mol
"COCCOC [1,2-dimethoxyethane] + OCc1ccccc1",excess molar enthalpy,[2]; x1 = 0.0395,0.0173 ± 0.000311 kcal/mol
same,excess molar enthalpy,[2]; x1 = 0.076,0.0136 ± 0.000287 kcal/mol
same,excess molar enthalpy,[2]; x1 = 0.1098,0.000693 ± 0.000191 kcal/mol
same,excess molar enthalpy,[2]; x1 = 0.1413,-0.0149 ± 0.000311 kcal/mol
same,excess molar enthalpy,[2]; x1 = 0.1979,-0.0436 ± 0.000526 kcal/mol
same,excess molar enthalpy,[2]; x1 = 0.2476,-0.0633 ± 0.000669 kcal/mol
same,excess molar enthalpy,[2]; x1 = 0.3305,-0.0801 ± 0.000813 kcal/mol
same,excess molar enthalpy,[2]; x1 = 0.3969,-0.08 ± 0.000813 kcal/mol
same,excess molar enthalpy,[2]; x1 = 0.4968,-0.0624 ± 0.000669 kcal/mol
same,excess molar enthalpy,[2]; x1 = 0.5969,-0.0293 ± 0.000406 kcal/mol
same,excess molar enthalpy,[2]; x1 = 0.6638,0.00306 ± 0.000215 kcal/mol
same,excess molar enthalpy,[2]; x1 = 0.7476,0.0543 ± 0.000598 kcal/mol
same,excess molar enthalpy,[2]; x1 = 0.7979,0.08707 ± 0.00086 kcal/mol
same,excess molar enthalpy,[2]; x1 = 0.8555,0.1169 ± 0.0011 kcal/mol
same,excess molar enthalpy,[2]; x1 = 0.8876,0.1236 ± 0.00115 kcal/mol
same,excess molar enthalpy,[2]; x1 = 0.9221,0.1161 ± 0.00108 kcal/mol
same,excess molar enthalpy,[2]; x1 = 0.9595,0.08243 ± 0.000813 kcal/mol
OCCOCCO [diethylene glycol],mass density,[1],1105.86 ± 0.63 kg/m3
OCc1ccccc1 [benzenemethanol] + CCCCOCCCC,excess molar enthalpy,[2]; x2 = 0.0247,-0.0016 ± 0.000191 kcal/mol
same,excess molar enthalpy,[2]; x2 = 0.0481,0.000239 ± 0.000191 kcal/mol
same,excess molar enthalpy,[2]; x2 = 0.0705,0.00425 ± 0.000215 kcal/mol
same,excess molar enthalpy,[2]; x2 = 0.0918,0.00963 ± 0.000263 kcal/mol
same,excess molar enthalpy,[2]; x2 = 0.1317,0.0222 ± 0.000359 kcal/mol
same,excess molar enthalpy,[2]; x2 = 0.1682,0.0355 ± 0.000454 kcal/mol
same,excess molar enthalpy,[2]; x2 = 0.2327,0.0605 ± 0.000645 kcal/mol
same,excess molar enthalpy,[2]; x2 = 0.288,0.0821 ± 0.000813 kcal/mol
same,excess molar enthalpy,[2]; x2 = 0.3776,0.1136 ± 0.00108 kcal/mol
same,excess molar enthalpy,[2]; x2 = 0.4765,0.1406 ± 0.00127 kcal/mol
same,excess molar enthalpy,[2]; x2 = 0.5482,0.1535 ± 0.00139 kcal/mol
same,excess molar enthalpy,[2]; x2 = 0.6454,0.1627 ± 0.00143 kcal/mol
same,excess molar enthalpy,[2]; x2 = 0.7082,0.1645 ± 0.00146 kcal/mol
same,excess molar enthalpy,[2]; x2 = 0.7845,0.1608 ± 0.00143 kcal/mol
same,excess molar enthalpy,[2]; x2 = 0.8292,0.1533 ± 0.00136 kcal/mol
same,excess molar enthalpy,[2]; x2 = 0.8792,0.1362 ± 0.00124 kcal/mol
same,excess molar enthalpy,[2]; x2 = 0.9357,0.09577 ± 0.000932 kcal/mol
CCOCCOCCOCC [diethylene glycol diethyl ether] + OCc1ccccc1,excess molar enthalpy,[2]; x1 = 0.0234,-0.0401 ± 0.000502 kcal/mol
same,excess molar enthalpy,[2]; x1 = 0.0458,-0.0728 ± 0.000741 kcal/mol
same,excess molar enthalpy,[2]; x1 = 0.0672,-0.09959 ± 0.000956 kcal/mol
same,excess molar enthalpy,[2]; x1 = 0.0876,-0.1215 ± 0.00112 kcal/mol
same,excess molar enthalpy,[2]; x1 = 0.1259,-0.1547 ± 0.00139 kcal/mol
same,excess molar enthalpy,[2]; x1 = 0.1611,-0.1773 ± 0.00155 kcal/mol
same,excess molar enthalpy,[2]; x1 = 0.2236,-0.203 ± 0.00177 kcal/mol
same,excess molar enthalpy,[2]; x1 = 0.2774,-0.2131 ± 0.00184 kcal/mol
same,excess molar enthalpy,[2]; x1 = 0.3655,-0.2129 ± 0.00184 kcal/mol
same,excess molar enthalpy,[2]; x1 = 0.4635,-0.1973 ± 0.00172 kcal/mol
same,excess molar enthalpy,[2]; x1 = 0.5353,-0.1792 ± 0.00158 kcal/mol
same,excess molar enthalpy,[2]; x1 = 0.6334,-0.1493 ± 0.00134 kcal/mol
same,excess molar enthalpy,[2]; x1 = 0.6973,-0.1268 ± 0.00117 kcal/mol
same,excess molar enthalpy,[2]; x1 = 0.7756,-0.09598 ± 0.000932 kcal/mol
same,excess molar enthalpy,[2]; x1 = 0.8217,-0.0766 ± 0.000789 kcal/mol
same,excess molar enthalpy,[2]; x1 = 0.8736,-0.0537 ± 0.000598 kcal/mol
same,excess molar enthalpy,[2]; x1 = 0.9325,-0.0274 ± 0.000406 kcal/mol
CCOCCO [2-ethoxyethan-1-ol] + OCc1ccccc1,excess molar enthalpy,[2]; x1 = 0.0424,-0.0217 ± 0.000359 kcal/mol
same,excess molar enthalpy,[2]; x1 = 0.0814,-0.0387 ± 0.000478 kcal/mol
same,excess molar enthalpy,[2]; x1 = 0.1173,-0.0522 ± 0.000598 kcal/mol
same,excess molar enthalpy,[2]; x1 = 0.1505,-0.0635 ± 0.000669 kcal/mol
same,excess molar enthalpy,[2]; x1 = 0.21,-0.0803 ± 0.000813 kcal/mol
same,excess molar enthalpy,[2]; x1 = 0.2617,-0.09209 ± 0.000908 kcal/mol
same,excess molar enthalpy,[2]; x1 = 0.3471,-0.1055 ± 0.001 kcal/mol
same,excess molar enthalpy,[2]; x1 = 0.4148,-0.1101 ± 0.00103 kcal/mol
same,excess molar enthalpy,[2]; x1 = 0.5154,-0.1094 ± 0.00103 kcal/mol
same,excess molar enthalpy,[2]; x1 = 0.6147,-0.1001 ± 0.000956 kcal/mol
same,excess molar enthalpy,[2]; x1 = 0.6802,-0.08972 ± 0.000884 kcal/mol
same,excess molar enthalpy,[2]; x1 = 0.7613,-0.0722 ± 0.000741 kcal/mol
same,excess molar enthalpy,[2]; x1 = 0.8097,-0.0592 ± 0.000645 kcal/mol
same,excess molar enthalpy,[2]; x1 = 0.8645,-0.0422 ± 0.000502 kcal/mol
same,excess molar enthalpy,[2]; x1 = 0.8948,-0.0319 ± 0.00043 kcal/mol
same,excess molar enthalpy,[2]; x1 = 0.9273,-0.0211 ± 0.000359 kcal/mol
same,excess molar enthalpy,[2]; x1 = 0.9623,-0.00994 ± 0.000263 kcal/mol
"CCOCCOCCO [3,6-dioxa-1-octanol] + OCc1ccccc1",excess molar enthalpy,[2]; x1 = 0.0289,-0.0471 ± 0.00055 kcal/mol
same,excess molar enthalpy,[2]; x1 = 0.0561,-0.0828 ± 0.000837 kcal/mol
same,excess molar enthalpy,[2]; x1 = 0.0819,-0.1102 ± 0.00103 kcal/mol
same,excess molar enthalpy,[2]; x1 = 0.1063,-0.1318 ± 0.0012 kcal/mol
same,excess molar enthalpy,[2]; x1 = 0.1514,-0.1627 ± 0.00143 kcal/mol
same,excess molar enthalpy,[2]; x1 = 0.1921,-0.1839 ± 0.0016 kcal/mol
same,excess molar enthalpy,[2]; x1 = 0.2629,-0.2083 ± 0.00179 kcal/mol
same,excess molar enthalpy,[2]; x1 = 0.3223,-0.2197 ± 0.00189 kcal/mol
same,excess molar enthalpy,[2]; x1 = 0.4164,-0.225 ± 0.00194 kcal/mol
same,excess molar enthalpy,[2]; x1 = 0.517,-0.2142 ± 0.00184 kcal/mol
same,excess molar enthalpy,[2]; x1 = 0.588,-0.1989 ± 0.00172 kcal/mol
same,excess molar enthalpy,[2]; x1 = 0.6816,-0.1701 ± 0.00151 kcal/mol
same,excess molar enthalpy,[2]; x1 = 0.7405,-0.1475 ± 0.00134 kcal/mol
same,excess molar enthalpy,[2]; x1 = 0.8106,-0.1164 ± 0.00108 kcal/mol
same,excess molar enthalpy,[2]; x1 = 0.8509,-0.09579 ± 0.000932 kcal/mol
same,excess molar enthalpy,[2]; x1 = 0.8954,-0.0707 ± 0.000741 kcal/mol
same,excess molar enthalpy,[2]; x1 = 0.9448,-0.0393 ± 0.000502 kcal/mol
CCOCCO [2-ethoxyethan-1-ol],mass density,[1],916 ± 0.53 kg/m3
CCOCCOCCOCC [diethylene glycol diethyl ether],mass density,[1],893.08 ± 0.54 kg/m3
OCCOCCOCCO [triethylene glycol],mass density,[1],1112.59 ± 0.64 kg/m3
